Results from paper PMC5773572, “High-throughput analysis using non-depletive SPME: challenges and applications to the determination of free and total concentrations in small sample volumes” (Scientific Reports, 2018).

How the values were obtained:
5% calf serum in PBS [1] = test: Protein binding by rapid equilibrium dialysis (RED) in 5% calf serum; format: in vitro ADME; conditions: 8K MWCO
Method: Equipments. […] Impact™ protein precipitation plates were purchased from Phenomenex (Torrance, CA, USA). Sample preparation for RED. […] RED protocol. […] Aliquots (400µL) of the spiked treatment medium solutions were added to the donor wells followed by the addition of600µL of blank medium to the acceptor cells. […] The experiment was performed in triplicate for all compounds and concentrations.

calf serum (CS) = test: Protein binding by ultra-thin coated HLB fiber SPME, slope ratio of calibrations in PBS vs 100% calf serum; conditions: 100% calf serum vs PBS pH 7.4; fiber SPME, 5 min extraction, 37 °C, 100 µL sample
Method: (§1) The SPME experimental workflow consisted of five major steps. First, prior to extraction, fibers were conditioned in 100 µL of desorption solution ACN/H2O (80/20, v/v), which was acidified to contain 0.1% (v/v) formic acid. The second step, occurring prior to extraction, involved submersing the fiber in 100 µL of ultrapure water to remove traces of solvent from the extraction phase. This step was performed for 10 seconds using 100 rpm agitation, with water temperature set to 37 °C in order to avoid a temperature gradient between the fiber and the sample, as this could influence the initial uptake of analytes. Following, extraction was performed on 100 µL of sample for 5 min, with samples thermostated to 37 °C, using 100 rpm agitation, prior to extraction. The fourth step consisted of a second rinsing of the fiber with 100 µL of water for 10 seconds to remove matrix components from the fiber. This step was critical, as it ensured that there were no traces of binding components remaining on the coating that could interfere with the quantitation of analytes extracted by the SPME fiber. […]
(§2) The reliability of the new fiber-based SPME high-throughput method was tested by applying it to the determination of the protein binding (PB) percentages of the selected analytes. […] The protein binding of each compound was calculated using the slope ratios of the linear portions of the calibration curves. […]

5% calf serum in PBS [2] = test: Protein binding by high-throughput SPME fiber method in 5% calf serum in PBS
Method: The SPME experimental workflow consisted of five major steps. First, prior to extraction, fibers were conditioned in 100 µL of desorption solution ACN/H2O (80/20, v/v), which was acidified to contain 0.1% (v/v) formic acid. The second step, occurring prior to extraction, involved submersing the fiber in 100 µL of ultrapure water to remove traces of solvent from the extraction phase. This step was performed for 10 seconds using 100 rpm agitation, with water temperature set to 37 °C in order to avoid a temperature gradient between the fiber and the sample, as this could influence the initial uptake of analytes. […] This step was critical, as it ensured that there were no traces of binding components remaining on the coating that could interfere with the quantitation of analytes extracted by the SPME fiber. […]
as §2
The developed SPME method was further evaluated using a matrix consisted of 5% CS in PBS to mimic conditions typically used in in vitro cell assay applications. […]

plasma proteins = conditions: value reported in the literature, used to calculate the expected free amount; cited from earlier work
[3] = Protein binding by ultra-thin coated HLB fiber SPME, slope ratio of calibrations in PBS vs 100% calf serum; conditions: bovine (calf), 100% calf serum, pH 7.4
Method: as §1, §2

Structure (SMILES) | binding values in 5% CS (RED) (5% calf serum in PBS [1]) [%] | protein binding (PB) (calf serum (CS)) [%] | PB values in 5% CS (SPME) (5% calf serum in PBS [2]) [%] | Protein binding (plasma proteins) [%] | fraction unbound at 5 min [3]
CCN(CC)C(=O)c1cccc(C)c1 [DEET, N,N-Diethyl-meta-toluamide] | < 10 | 71 | 38 | – | –
CN1CCCC1c1cccnc1 (racemic) [Nicotine, (±) nicotine] | < 10 | – | 8 | <10 | –
O=C(O)Cc1ccccc1Nc1c(Cl)cccc1Cl [Diclofenac, diclofenac] | 91 | – | – | – | 0.02
